# Measured values from PubChem BioAssay (NCI).
#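 Dose response: 5 concentrations. Exposure: 48 h. Format: 96-well plates. Endpoint: linear interpolation; highest concentration if not reached. TGI marks complete inhibition of growth.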
# Tests used:
# Assay in all cases: NCI anticancer screen, dose series, 48 h
# [1] = test system: SK-MEL-5 melanoma
# [2] = test system: SK-MEL-2 melanoma
# [3] = test system: NCI/ADR-RES ovarian
# [4] = test system: U251 CNS
# [5] = test system: IGROV1 ovarian
# [6] = test system: SF-539 CNS
# [7] = test system: CCRF-CEM leukemia
# [8] = test system: NCI-H23 lung
# [9] = test system: HOP-92 NSCLC
# [10] = test system: SK-OV-3 ovarian
# [11] = test system: TK-10 renal
# [12] = test system: SNB-75 CNS
# [13] = test system: ACHN renal
# [14] = test system: HT29 colon
# [15] = test system: OVCAR-4 ovarian
# [16] = test system: NCI-H522 lung
# [17] = test system: A549 NSCLC
# [18] = test system: M14 melanoma
# [19] = test system: COLO 205 colon
# [20] = test system: SN12C renal
# [21] = test system: NCI-H460 lung
# [22] = test system: HCT-116 colon
# [23] = test system: SNB-19 CNS
# [24] = test system: LOX IMVI melanoma
# [25] = test system: NCI-H226 lung
# [26] = test system: MALME-3M melanoma
# [27] = test system: T-47D breast
# [28] = test system: UACC-257 melanoma
# [29] = test system: OVCAR-8 ovarian
# [30] = test system: HOP-62 NSCLC
# [31] = test system: SK-MEL-28 melanoma
# [32] = test system: OVCAR-5 ovarian
# [33] = test system: K-562 leukemia
# [34] = test system: OVCAR-3 ovarian
# [35] = test system: HCC-2998 colon
# [36] = test system: HCT-15 colon
# [37] = test system: HS 578T breast
# [38] = test system: MOLT-4 leukemia
# [39] = test system: EKVX NSCLC
# [40] = test system: 786-0 renal
# [41] = test system: KM12 colon
# [42] = test system: UO-31 renal
# [43] = test system: PC-3 prostate
# [44] = test system: MDA-N
# [45] = test system: SF-295 CNS
# [46] = test system: DU-145 prostate
# [47] = test system: MDA-MB-231 breast
# [48] = test system: RXF 393 renal
# [49] = test system: SF-268 CNS
# [50] = test system: RPMI-8226 leukemia
# [51] = test system: SW-620 colon
# [52] = test system: CAKI-1 renal
# [53] = test system: MCF7 breast
# [54] = test system: A498 renal
# [55] = test system: UACC-62 melanoma
# [56] = test system: MDA-MB-435
structure (smiles),measurement,setting,value
CCOC(=O)C1=CC(C)(C(=O)OCC)Nc2c(nc(OC)[nH]c2=O)N1 (centres undefined),TGI,[1],> 10 µM
same,TGI,[2],> 10 µM
same,TGI,[3],> 10 µM
same,TGI,[4],> 10 µM
same,TGI,[5],> 10 µM
same,TGI,[6],> 10 µM
same,TGI,[7],> 10 µM
same,TGI,[8],> 10 µM
same,TGI,[9],> 10 µM
same,TGI,[10],> 10 µM
same,TGI,[11],> 10 µM
same,TGI,[12],> 10 µM
same,TGI,[13],> 10 µM
same,TGI,[14],> 10 µM
same,TGI,[15],> 10 µM
same,TGI,[16],> 10 µM
same,TGI,[17],> 10 µM
same,TGI,[18],> 10 µM
same,TGI,[19],> 10 µM
same,TGI,[20],> 10 µM
same,TGI,[21],> 10 µM
same,TGI,[22],> 10 µM
same,TGI,[23],> 10 µM
same,TGI,[24],> 10 µM
same,TGI,[25],> 10 µM
same,TGI,[26],> 10 µM
same,TGI,[27],> 10 µM
same,TGI,[28],> 10 µM
same,TGI,[29],> 10 µM
same,TGI,[30],> 10 µM
same,TGI,[31],> 10 µM
same,TGI,[32],> 10 µM
same,TGI,[33],> 10 µM
same,TGI,[34],> 10 µM
same,TGI,[35],> 10 µM
same,TGI,[36],> 10 µM
same,TGI,[37],> 10 µM
same,TGI,[38],> 10 µM
same,TGI,[39],> 10 µM
same,TGI,[40],> 10 µM
same,TGI,[41],> 10 µM
same,TGI,[42],> 10 µM
same,TGI,[43],> 10 µM
same,TGI,[44],> 10 µM
same,TGI,[45],> 10 µM
same,TGI,[46],> 10 µM
same,TGI,[47],> 10 µM
same,TGI,[48],> 10 µM
same,TGI,[49],> 10 µM
same,TGI,[50],> 10 µM
same,TGI,[51],> 10 µM
same,TGI,[52],> 10 µM
same,TGI,[53],> 10 µM
same,TGI,[54],> 10 µM
COC(=O)C1C2CC3C1C3C2C(=O)OC (centres undefined),TGI,[1],> 100 µM
same,TGI,[2],> 100 µM
same,TGI,[3],> 100 µM
same,TGI,[4],> 100 µM
same,TGI,[5],> 100 µM
same,TGI,[6],> 100 µM
same,TGI,[7],> 100 µM
same,TGI,[8],> 100 µM
same,TGI,[9],> 100 µM
same,TGI,[10],> 100 µM
same,TGI,[55],> 100 µM
same,TGI,[11],> 100 µM
same,TGI,[12],> 100 µM
same,TGI,[13],> 100 µM
same,TGI,[14],> 100 µM
same,TGI,[15],> 100 µM
same,TGI,[16],> 100 µM
same,TGI,[17],> 100 µM
same,TGI,[18],> 100 µM
same,TGI,[19],> 100 µM
same,TGI,[20],> 100 µM
same,TGI,[21],> 100 µM
same,TGI,[22],> 100 µM
same,TGI,[23],> 100 µM
same,TGI,[56],> 100 µM
same,TGI,[24],> 100 µM
same,TGI,[25],> 100 µM
same,TGI,[26],> 100 µM
same,TGI,[27],> 100 µM
same,TGI,[28],> 100 µM
same,TGI,[29],> 100 µM
same,TGI,[30],> 100 µM
same,TGI,[31],> 100 µM
same,TGI,[32],> 100 µM
same,TGI,[33],> 100 µM
same,TGI,[34],> 100 µM
same,TGI,[35],> 100 µM
same,TGI,[36],> 100 µM
same,TGI,[37],> 100 µM
same,TGI,[38],> 100 µM
same,TGI,[39],> 100 µM
same,TGI,[40],> 100 µM
same,TGI,[41],> 100 µM
same,TGI,[42],> 100 µM
same,TGI,[43],> 100 µM
same,TGI,[44],> 100 µM
same,TGI,[45],> 100 µM
same,TGI,[46],> 100 µM
same,TGI,[47],> 100 µM
same,TGI,[48],> 100 µM
same,TGI,[49],> 100 µM
same,TGI,[51],> 100 µM
same,TGI,[52],> 100 µM
same,TGI,[53],> 100 µM
same,TGI,[54],> 100 µM
